From paper PMC8691750, “Euphorbia Factor L2 ameliorates the Progression of K/BxN Serum-Induced Arthritis by Blocking TLR7 Mediated IRAK4/IKKβ/IRF5 and NF-kB Signaling Pathways” (Frontiers in Pharmacology, 2021)

What was measured:
[1] = test system: IL-1β and IL-6 in the ankle; assay: Immunochemistry staining for IL-1β and IL-6 in ankles; type: in vivo, C57BL/6 mice; conditions: STA mice; EFL2 15 or 40 mg/kg
Protocol: The dissected left ankles were fixed in 4% formaldehyde overnight. Embedding, de-paraffinization, and re-hydration of the ankle sections were the same as described for H&E staining. After treated with 3% […] for 10 min, the tissue sections were immersed in a 10 mM sodium citrate buffer (pH 6.0) for 15 min at 95°C, and washed with PBS. The sections were then blocked with 5% goat serum in PBS, and incubated with primary antibodies overnight at 4°C. Primary antibodies were as follows: rabbit anti-mouse IL-1β (1:600, Abcam, China); rabbit anti-mouse IL-6 (1:50, Abcam, China). The signal was visualized using an Envision System (DAKO, United States). The images were then acquired by microscopy (Leica DMil).

[2] = In vivo pharmacokinetic study, plasma UPLC-MS; parameters: species or system C57BL/6 mice; conditions: for Cmax: 40 mg/kg
Protocol: Prior to the pharmacokinetic study, 12 male C57BL/6 mice were fasted for 12 h with free access to water, and then treated by intraperitoneal injection of EFL2 at a dose of 40 mg/kg. About 50 μL blood samples were collected via the oculi chorioideae vein at 0.5, 1, 2, 4, 8, 12, 24, 72, 96, and 168 h, respectively. After centrifugation at 5,000 rpm for 10 min, plasma samples were obtained and frozen at −80°C until analysis. The pharmacokinetic parameters of EFL2 were calculated using WinNolin 4.0.1 software.
20 μL plasma samples were spiked with 340 μL acetonitrile by vortex mixing for 30 s. The mixture was then centrifuged at 10,000 rpm for 5 min at 4°C to separate the precipitated protein. An aliquot of 50 μL supernatant was transferred to a fresh tube and spiked with 450 μL mobile phase (acetonitrile containing 0.1% formic acid). After centrifugation at 13,000 rpm for 5 min, 3 μL supernatant was injected into Agilent 6,495 Triple Quadrupole LC/MS/MS system for each time. Then, the concentration of EFL2 was determined.
An Agilent 1,200 series UPLC system (Agilent Technologies, Waldbronn, Germany) equipped with an 6,495 quadruple mass spectrometer (Agilent Technologies, Santa Clara, CA, United States) were used for pharmacokinetic study. The separation was carried out with Waters Acquity UPLC BEH C18 column (2.1 × 50 mm, 1.7 μm) at a constant temperature of 30 °C. The mobile phase was composed of aqueous solution (0.1% formic acid, A) and acetonitrile (containing 0.1% formic acid, B) and the program of the mobile phase was as follows: 0 min, 40% B; 1 min, 40% B; 1.5 min, 80% B; 2.5 min, 90% B; 4 min, 90% B; 4.1 min, 40% B; 6 min, 40% B, at a flow rate of 0.3 ml/min. The mass spectra were acquired using a triple quadrupole mass spectrometer with ESI ion source in positive mode. The ionization conditions were as follows: drying gas temperature (N2), 300°C; gas flow, 11 L/min (N2); nebulizer pressure, 35 psi (N2). An Agilent Mass Hunter workstation was used for data processing.

[3] = test system: RAW264.7 cells; assay: Cell viability, CCK8 assay, RAW264.7; type: cell-based, mouse; conditions: CCK8, 0.1-100 μM, 20 h
Protocol: RAW264.7 cells, a mouse macrophage cell line, were cultured in DMEM medium containing 10% fetal bovine serum (FBS), 1% penicillin-streptomycin and maintained at 37 °C in 5% CO2 humidified air. Bone marrow-derived macrophages (BMDMs) generation was performed as following description. In brief, bone marrow cells were harvested from tibias and femurs of C57BL/6 mice and differentiated for 7 days in DMEM medium supplemented with 10% FBS, 1% penicillin-streptomycin and 50 ng/ml M-CSF. For human peripheral blood mononuclear cells (PBMCs) preparation, 5 ml peripheral venous blood was obtained from healthy donors in West China Hospital. PBMCs were isolated with Human Lymphocyte Separation Medium (LTS1077, Tian Jing, China) according to the manufacturer’s instructions. The experimental protocols were performed according to the approved guidelines established by the Institutional Human Research Subject Protection Committee of the Ethics Committee of West China Hospital, Sichuan University, China.
The effects of EFL2 on RAW264.7 cells, BMDMs and PBMCs viability were evaluated by Cell Counting Kit-8 (CCK8) assay (Dojindo, Japan). […] The optical absorbance at 450 nm was read with a Biotek Eon™ microplate reader (Biotek, Vermont, United States).

[4] = male, C57BL/6, mouse, ip, mice, 40 mg/kg intraperitoneal injection, plasma

Question: For `C=C1C(OC(=O)c2ccccc2)CC2C(C=C(C)C(=O)C3(OC(C)=O)CC(C)C(OC(=O)c4ccccc4)C3C1OC(C)=O)C2(C)C` (centres unmarked) [EFL2, Euphorbia factor L2], which “IL-1β and IL-6 production in local inflamed joints (immunohistochemical staining)” value [1] is on record?
Answer: Its value is “could inhibit”.

Question: And the “peak concentration in sera” value ([2]; based on Cmax and molecular weight (MW = 642.6))?
Answer: Its value is 7.03 µM.

Question: What about the AUC(0-inf) [2, 4] of the same molecule?
Answer: The AUC(0-inf) was 379 ± 166 µg·h/mL.

Question: And the AUC(0-t) [2, 4]?
Answer: Its AUC(0-t) is 374 ± 164 µg·h/mL.

Question: And the Tmax [2, 4]?
Answer: Its Tmax is 2.5 ± 1.73 h.

Question: What about the half-life [2, 4] of the same molecule?
Answer: Its half-life is 21.2 ± 7.11 h.

Question: And the MRT last ([2]; male, C57BL/6, mouse, ip, mice, 40 mg/kg intraperitoneal injection, plasma, read-out: MRT0-t)?
Answer: Its MRT last is 59.2 ± 2.75 h.

Question: What about the MRT inf ([2]; male, C57BL/6, mouse, ip, mice, 40 mg/kg intraperitoneal injection, plasma, read-out: MRT0-∞) of the same molecule?
Answer: Its MRT inf is 61.4 ± 3.7 h.

Question: And the Cmax ([2]; male, C57BL/6, mouse, plasma, ip, mice, 40 mg/kg i.p.)?
Answer: The Cmax was 4520 ± 1630 ng/mL.

Question: What about the Cmax ([2]; male, C57BL/6, mouse, plasma, ip, mice, 40 mg/kg intraperitoneal injection) of the same molecule?
Answer: The Cmax was 4530 ng/mL.

Question: What about the “concentration at which significant cytotoxicity is displayed” value [3] of the same molecule?
Answer: The value was no less than 25 µM.
